The source of these data is patent US20250082598A1, “Melafenoxate, 2-(1-adamantylamino)ethyl 2-(4-chlorophenoxy)acetate and derivatives thereof for treating circadian rhythm sleep disorders with neurodegenerative diseases such as Alzheimer's disease” (NLS Pharmaceutics AG, priority 2021, published 2025).

As a reminder, the inhibition is how much of the control response was suppressed. By % Inhibition is commonly meant the relative decrease from the control value, in per cent. A high value points to a strong effect.

One test concerns the target T1, DAT (h) (Homo sapiens, UniProt Q01959).
T1 construct: Eurofins
The experiment in a line: Radioligand binding, DAT (h). Particulars: 10^−5 M; antagonist radioligand. On the procedure: (§1) Melafenoxate was tested at 10^−5 M, calculated as a % inhibition of control specific binding of a radioactively labeled ligand specific for each target.
(§2) This binding profile panel was broadly defined with roughly an equal number of selective, central and peripheral therapeutically relevant targets, including native animal tissues, radioligands and specific enzymes involved in cell cycle regulation in accordance with Eurofins Standard Operating Procedure.
(§3) For radioligand binding experiments, the half maximal inhibitory concentration (IC50) and the half maximal effective concentration (EC50) values were determined (via computer software) by nonlinear regression analysis of the competition curves using Hill equation curve fitting. The inhibition constants (Ki) were calculated using the Cheng-Prusoff equation (Ki=IC50/(1+(L/KD)), where L is the concentration of radioligand in the assay, and KD is the affinity of the radioligand for the receptor.^49
(§4) The results are expressed as a % control specific binding ([measured specific binding/control specific binding]×100) and as a % inhibition of control specific binding (100−[(measured specific binding/control specific binding)×100]) obtained in the presence of the test compounds. […]

For the next test, the target named is T2, NET (h) (Homo sapiens, UniProt P23975).
T2 construct: Eurofins
The test is described as follows: Radioligand binding, NET (h). Particulars: 10^−5 M; antagonist radioligand. The method, then:
as §1, §2, §3, §4

For the next test, the target named is RXFP4 (h) (Homo sapiens, UniProt Q8TDU9). The experiment in a line: RXFP4 assay (Eurofins/LeadHunter, cAMP Hunter GPCR Biosensor). The test is classed as cell-based. The method, then: Melafenoxate is found to weakly bind with RXFP3 and RXFP4 receptors (Study FR095-0024749-Q Eurofins/leadHunter Jun. 25, 2021; unpublished data).
In these assays' compounds were tested in agonist and antagonist mode with the GPCR Biosensor Assays and match to this design:
• 1. CAMP Hunter cell lines were expanded from freezer stocks according to standard procedures. • 2. Cells were seeded in a total volume of 20 μL into white walled, 384-well microplates and incubated at 37° C. for the appropriate time prior to testing. • 3. cAMP modulation was determined using the DiscoverX HitHunter CAMP XS+assay.
• 1. For agonist determination, cells were incubated with sample to induce response. • 2. Media was aspirated from cells and replaced with 15 μL 2:1 HBSS/10 mM Hepes: CAMP XS+ Ab reagent. • 3. […]
• 1. […] Microplates were read following signal generation with a PerkinElmer Envision™ instrument for chemiluminescent signal detection.
• 1. Compound activity was analyzed using CBIS data analysis suite (ChemInnovation, CA). • 2. For Gs agonist mode assays, percentage activity is calculated using the following formula:
% Activity=100%×(mean RLU of test sample−mean RLU of vehicle control)/(mean RLU of MAX control−mean RLU of vehicle control). • 3. For Gs positive allosteric mode assays, percentage modulation is calculated using the following formula: http://www.eurofinsdiscoveryservices.com Confidential Jun. […]

SMILES strings stand for the structures.

Chain of RXFP4 (h) (Q8TDU9 whole entry): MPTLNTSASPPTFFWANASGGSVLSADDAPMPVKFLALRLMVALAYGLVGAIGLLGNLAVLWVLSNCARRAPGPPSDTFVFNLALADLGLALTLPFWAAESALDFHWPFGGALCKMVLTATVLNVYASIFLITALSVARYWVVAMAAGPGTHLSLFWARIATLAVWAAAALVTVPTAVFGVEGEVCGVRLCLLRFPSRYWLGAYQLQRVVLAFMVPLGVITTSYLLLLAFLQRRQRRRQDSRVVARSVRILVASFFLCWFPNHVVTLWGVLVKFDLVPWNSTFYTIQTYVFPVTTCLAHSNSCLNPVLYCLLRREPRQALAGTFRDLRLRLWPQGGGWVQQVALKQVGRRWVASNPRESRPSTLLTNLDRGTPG
T1 sequence (Q01959 whole entry): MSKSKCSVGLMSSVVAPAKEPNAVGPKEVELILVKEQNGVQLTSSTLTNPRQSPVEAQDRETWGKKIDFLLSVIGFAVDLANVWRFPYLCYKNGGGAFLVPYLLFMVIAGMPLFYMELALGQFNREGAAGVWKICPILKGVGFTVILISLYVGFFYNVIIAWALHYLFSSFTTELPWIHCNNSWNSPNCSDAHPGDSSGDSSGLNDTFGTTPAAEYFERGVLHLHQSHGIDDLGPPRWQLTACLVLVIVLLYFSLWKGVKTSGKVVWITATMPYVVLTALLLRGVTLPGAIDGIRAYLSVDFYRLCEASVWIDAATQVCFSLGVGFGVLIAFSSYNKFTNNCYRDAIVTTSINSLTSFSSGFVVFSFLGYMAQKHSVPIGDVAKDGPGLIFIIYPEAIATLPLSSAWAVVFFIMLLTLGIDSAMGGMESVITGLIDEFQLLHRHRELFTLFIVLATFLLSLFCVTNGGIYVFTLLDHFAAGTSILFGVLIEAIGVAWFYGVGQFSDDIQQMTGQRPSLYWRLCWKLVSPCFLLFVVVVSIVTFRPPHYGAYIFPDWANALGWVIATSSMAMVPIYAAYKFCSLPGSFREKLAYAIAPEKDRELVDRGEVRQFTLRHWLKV
T2 sequence (P23975 whole entry): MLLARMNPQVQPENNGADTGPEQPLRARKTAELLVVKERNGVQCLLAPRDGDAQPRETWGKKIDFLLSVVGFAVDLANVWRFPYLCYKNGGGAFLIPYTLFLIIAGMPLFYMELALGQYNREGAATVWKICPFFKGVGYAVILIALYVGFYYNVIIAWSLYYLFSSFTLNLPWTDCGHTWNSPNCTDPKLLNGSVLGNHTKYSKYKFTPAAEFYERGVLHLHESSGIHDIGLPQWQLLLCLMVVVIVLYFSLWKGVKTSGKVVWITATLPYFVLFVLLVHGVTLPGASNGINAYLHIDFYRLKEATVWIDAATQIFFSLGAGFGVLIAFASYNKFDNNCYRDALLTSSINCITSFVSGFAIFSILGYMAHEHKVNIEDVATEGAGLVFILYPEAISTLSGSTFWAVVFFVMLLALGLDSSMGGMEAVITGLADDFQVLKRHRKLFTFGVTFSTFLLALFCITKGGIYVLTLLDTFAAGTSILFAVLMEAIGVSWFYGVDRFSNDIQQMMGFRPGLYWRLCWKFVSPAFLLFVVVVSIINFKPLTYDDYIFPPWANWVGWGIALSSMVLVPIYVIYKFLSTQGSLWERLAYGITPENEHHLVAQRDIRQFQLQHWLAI

Regarding `O=C(COc1ccc(Cl)cc1)OCCNC12CC3CC(CC(C3)C1)C2` [Melafenoxate, 2-(1-adamantylamino)ethyl 2-(4-chlorophenoxy)acetate], the inhibition at 10 µM on DAT (h) stood at 20.9%; on NET (h) it was 16.5%. Also, the “binding with RXFP4 receptor (in words)” value on RXFP4 (h) was “weakly bind”. Further, the “% Inhibition at 5*10^−5 M” value at RXFP4 (h) (5*10^−5 M) came to 19.5%.
